Source: patent publication US12116362B2, “Monocyclic compounds useful as GPR120 modulators” (Valo Health, Inc., priority 2016, dated 2024)

These compounds were tested against T1, human GPR120 (Homo sapiens, UniProt Q5NUL3) (assay: GPR120 β-Arrestin Recruitment Assay (PathHunter, CHO-K1 cells)). Details: CHO-K1; @ 10 uM; read-out: percent activation at a single concentration (printed in the β-Arr pEC50 column).
T1 construct: host or cells: CHO-K1
Type: cell-based
From the text: This in vitro assay tests compounds' ability to activate intracellular signaling via 3-Arrestin recruitment to heterologously expressed human GPR120. This functional cellular assay utilizes enzyme fragment complementation with β-galactosidlase (β-gal) as a functional reporter (DiscoveRx PathlHunter® β-Arrestin assay platform). The human (GPR120 receptor (GenBank accession Number NM_181745) was fused in frame with the small enzyme fragment ProLink™ and co-expressed in CHO-K1 cells with a fusion protein of β-Arrestin 2 and the larger, N-terminal deletion mutant of β-gal. Activation by a GPR120 agonist stimulates binding of β-arrestin to the ProLink-tagged GPCR and forces complementation of the two enzyme fragments, resulting in the formation of an active β-gal enzyme. This interaction leads to an increase in enzyme activity that can be measured using chemiluminescent PathHunter® Detection Reagents.
One day prior to the assay, cells were seeded in a total volume of 20 μl of growth medium into white walled 384-well microplates and incubated at 37° C./5% CO2 overnight. On the day of the assay, growth medium was removed and 20 μl assay buffer (HBSS+10 mM HEPES+0.1% heat-inactivated BSA) were added to each well.
Test compounds were dissolved in 100% DMSO to a concentration of 10 mM to provide stock solutions. Serial dilutions were performed from stock solutions into assay buffer to obtain intermediate concentrations of 5-fold higher than the concentrations to be tested. 5 μl of the 5× compound solutions were added to the cells and the assay plates were incubated at 37° C. for 90 minutes. The final concentration of compounds tested in the assay ranged from 1.5 nM to 100 μM. Following incubation, 12.5 μl of PathHunter® detection reagent were added to each well, and plates were incubated at room temperature for 60 minutes. Chemiluminescence was read using an EnVision plate reader (PerkinElmer), raw data were expressed as relative light units (RLU).
(§1) To determine agonist potencies (EC50 values), non-linear least-squares curve fits of the raw data (RLU) were performed in the GraphPad Prism software package, using the 4-parameter model with variable Hill Slope:
Reported below in Table 1 are pEC50 values (pEC50=−log(EC50) from curve fit) for compounds of Formula I in this assay, β-Arr pEC50 Alternatively, percent activation at a single concentration is reported.
T1 sequence (Q5NUL3 1-377 isoform Q5NUL3-1): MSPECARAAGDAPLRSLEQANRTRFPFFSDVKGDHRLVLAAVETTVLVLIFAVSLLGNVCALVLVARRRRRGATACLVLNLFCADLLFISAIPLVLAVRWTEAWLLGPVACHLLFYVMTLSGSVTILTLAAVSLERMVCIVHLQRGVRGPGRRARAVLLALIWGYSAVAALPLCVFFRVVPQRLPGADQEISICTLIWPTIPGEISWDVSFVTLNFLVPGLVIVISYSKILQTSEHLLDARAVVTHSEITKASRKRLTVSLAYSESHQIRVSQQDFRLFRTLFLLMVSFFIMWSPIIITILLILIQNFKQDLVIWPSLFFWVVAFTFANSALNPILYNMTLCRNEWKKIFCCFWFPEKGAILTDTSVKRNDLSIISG
T1 sequence (P32121 whole entry partner): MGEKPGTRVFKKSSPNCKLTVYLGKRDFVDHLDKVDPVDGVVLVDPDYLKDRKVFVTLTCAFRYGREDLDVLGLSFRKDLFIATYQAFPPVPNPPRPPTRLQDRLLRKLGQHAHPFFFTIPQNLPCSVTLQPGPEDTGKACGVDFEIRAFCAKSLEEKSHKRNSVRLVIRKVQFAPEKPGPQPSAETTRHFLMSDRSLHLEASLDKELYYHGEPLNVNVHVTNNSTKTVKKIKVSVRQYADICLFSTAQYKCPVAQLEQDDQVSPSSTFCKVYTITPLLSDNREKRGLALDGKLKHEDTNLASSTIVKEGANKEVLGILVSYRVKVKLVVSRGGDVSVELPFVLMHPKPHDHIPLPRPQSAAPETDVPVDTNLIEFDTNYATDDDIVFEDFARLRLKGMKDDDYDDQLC

activation at 10 µM	Structure (SMILES)
1%	O=S1(=O)c2ccccc2CN1c1ccnc(OCc2cccnc2)n1 [Compound 71]

Same assay, conditions: pEC50=−log(EC50) from curve fit; CHO-K1 cells, 90 min incubation

β-Arr pEC50	Structure (SMILES)
<4.5	Cc1nc(Oc2ccc(Cl)cc2)nc(N2Cc3ccccc3S2(=O)=O)n1 [Compound 143]

Same assay, conditions: pEC50=−log(EC50) from curve fit; CHO-K1 cells, 90 min incubation; read-out: β-Arr pEC50 (converted)

EC50	Structure (SMILES)
> 10 µM	N#Cc1ccc(Oc2nccc(N3Cc4ccccc4S3(=O)=O)n2)cn1 [Compound 55]
1 µM	O=S1(=O)c2ccccc2CN1c1ccnc(Oc2ccc(OC(F)(F)F)cc2Cl)n1 [Compound 57]
> 10 µM	O=S1(=O)c2ccccc2CN1c1ccnc(OC2CCNCC2)n1 [Compound 62]
> 10 µM	O=S1(=O)c2ccccc2CN1c1ccnc(OC2CCOCC2)n1 [Compound 64]
> 10 µM	O=S1(=O)c2ccccc2CN1c1ccnc(OC2CCOC2)n1 (stereo not drawn) [Compound 65]
> 10 µM	CC(=O)N1CCCC(Oc2nccc(N3Cc4ccccc4S3(=O)=O)n2)C1 (stereo not drawn) [Compound 66]
2.51 µM	O=S1(=O)c2ccccc2CN1c1ccnc(OCC2CCCCC2)n1 [Compound 68]
3.98 µM	O=S1(=O)c2ccccc2CN1c1ccnc(OCC2CCC2)n1 [Compound 69]
15.8 µM	O=S1(=O)c2ccccc2CN1c1ccnc(OCc2ccccc2)n1 [Compound 70]
> 10 µM	O=S1(=O)c2ccccc2CN1c1ccnc(OCc2ccncc2)n1 [Compound 73]
> 31.6 µM	CN1CCC(Oc2nccc(N3Cc4ccccc4S3(=O)=O)n2)CC1 [Compound 74]
> 31.6 µM	NC(=O)COc1nccc(N2Cc3ccccc3S2(=O)=O)n1 [Compound 75]
> 31.6 µM	O=C(COc1nccc(N2Cc3ccccc3S2(=O)=O)n1)Nc1ccccc1 [Compound 76]
6.31 µM	N#Cc1cc(N2Cc3ccccc3S2(=O)=O)nc(Oc2cccnc2)n1 [Compound 81]
> 10 µM	CC(C)c1cc(N2Cc3ccccc3S2(=O)=O)nc(Oc2cccnc2)n1 [Compound 84]
> 31.6 µM	COc1ccc(-c2cc(N3Cc4ccccc4S3(=O)=O)nc(Oc3cccnc3)n2)cc1 [Compound 85]
> 10 µM	CNC(=O)c1cc(N2Cc3ccccc3S2(=O)=O)nc(Oc2cccnc2)n1 [Compound 88]
12.6 µM	COc1ccc2c(c1)S(=O)(=O)N(c1nccc(Oc3cccnc3)n1)C2 [Compound 90]
3.98 µM	Cc1cc(N2Cc3ccccc3S2(=O)=O)nc(OC2CC(F)(F)C2)n1 [Compound 91]
3.16 µM	Cc1cc(OC2CC(F)(F)C2)nc(N2Cc3ccccc3S2(=O)=O)n1 [Compound 92]
> 10 µM	O=S1(=O)c2ccccc2CN1c1nccc(OC2CC(F)(F)C2)n1 [Compound 94]
0.398 µM	COc1cc(N2Cc3ccccc3S2(=O)=O)nc(Oc2ccc(Cl)cc2)n1 [Compound 95]
0.158 µM	COc1cc(N2Cc3ccccc3S2(=O)=O)nc(Oc2ccccc2)n1 [Compound 100]
0.794 µM	COc1cc(Oc2ccccc2)nc(N2Cc3ccccc3S2(=O)=O)n1 [Compound 102]
2 µM	O=S1(=O)c2ccccc2CN1c1cc(C(F)(F)F)nc(Oc2ccc(F)cc2)n1 [Compound 103]
3.98 µM	Cc1cc(Oc2ccc(F)cc2)nc(N2Cc3ccccc3S2(=O)=O)n1 [Compound 104]
2.51 µM	Cc1cc(Oc2ccccc2)nc(N2Cc3ccccc3S2(=O)=O)n1 [Compound 105]

EC50	Structure (SMILES)
0.794 µM	Cc1cc(N2Cc3ccccc3S2(=O)=O)nc(Oc2ccccc2)n1 [Compound 107]
> 31.6 µM	CN1CCN(c2cc(N3Cc4ccccc4S3(=O)=O)nc(Oc3cccnc3)n2)CC1 [Compound 108]
> 31.6 µM	CS(=O)(=O)N1CC(Oc2nccc(N3Cc4ccccc4S3(=O)=O)n2)C1 [Compound 109]
> 31.6 µM	CC(=O)N1CC(Oc2nccc(N3Cc4ccccc4S3(=O)=O)n2)C1 [Compound 110]
> 10 µM	CC(=O)N1CCC(Oc2nccc(N3Cc4ccccc4S3(=O)=O)n2)CC1 [Compound 111]
> 31.6 µM	CC(=O)N1CCC(Oc2nccc(N3Cc4ccccc4S3(=O)=O)n2)C1 (stereo not drawn) [Compound 112]
12.6 µM	O=C1c2cccc(Br)c2CN1c1ccnc(Oc2cccnc2)n1 [Compound 113]
6.31 µM	Cc1cc(Oc2cccnc2)nc(N2Cc3ccccc3S2(=O)=O)n1 [Compound 115]
39.8 µM	COc1ccc2c(c1)CN(c1nccc(Oc3cccnc3)n1)S2(=O)=O [Compound 116]
> 10 µM	O=C1c2ccccc2CN1c1nccc(Oc2cccnc2)n1 [Compound 117]
1 µM	Cc1cccc2c1CN(c1nccc(Oc3cccnc3)n1)C2 [Compound 118]
> 31.6 µM	O=C1Cc2ccccc2N1c1nccc(Oc2cccnc2)n1 [Compound 120]
> 31.6 µM	O=S1(=O)c2ccccc2CN1c1cccc(Oc2ccccc2Cl)n1 [Compound 124]
> 31.6 µM	O=S1(=O)c2ccccc2CN1c1cccc(OC2CCC2)n1 [Compound 126]
> 31.6 µM	O=C1c2ncccc2CN1c1cccc(Oc2cccnc2)n1 [Compound 127]
> 31.6 µM	O=C1c2ccccc2CN1c1cccc(Oc2cccc(Cl)c2)n1 [Compound 130]
> 31.6 µM	COc1ccc2c(c1)S(=O)(=O)N(c1cccc(Oc3cccnc3)n1)C2 [Compound 132]
> 31.6 µM	COc1ccc2c(c1)CN(c1cccc(Oc3cccnc3)n1)S2(=O)=O [Compound 133]
> 10 µM	Cc1cc(Oc2cccnc2)nc(N2Cc3cccnc3C2=O)c1 [Compound 135]
0.631 µM	Cc1cc(Oc2cccnc2)nc(N2Cc3ccccc3S2(=O)=O)c1 [Compound 136]
2.51 µM	CNC(=O)c1cc(Oc2ccc(Cl)cc2)nc(N2Cc3ccccc3S2(=O)=O)c1 [Compound 137]
3.16 µM	CC(=O)Nc1cc(Oc2ccc(Cl)cc2)nc(N2Cc3ccccc3S2(=O)=O)c1 [Compound 138]
> 10 µM	CN(C)C(=O)c1cc(Oc2ccc(Cl)cc2)nc(N2Cc3ccccc3S2(=O)=O)c1 [Compound 139]
1 µM	O=S1(=O)c2ccccc2CN1c1cc(C(F)(F)F)cc(Oc2cccnc2)n1 [Compound 140]
6.31 µM	O=S1(=O)c2ccccc2CN1c1cc(C(F)(F)F)cc(OC2CC(F)(F)C2)n1 [Compound 141]
2 µM	Cc1nc(Oc2ccc(Cl)cc2)nc(N2Cc3ccccc3S2(=O)=O)n1 [Compound 144]
15.8 µM	O=S1(=O)c2ccccc2CN1c1ncnc(Oc2cccnc2)n1 [Compound 146]

Each compound was assayed against T2, human GPR120 (Homo sapiens, UniProt Q5NUL3) (assay: Human GPR120 Calcium-Release Assay (aequorin luminescence, CHO-K1 cells)). Details: pEC50=−log(EC50) from curve fit; short variant of human GPR120 in CHO-K1 with Gα16 and apoaequorin; read-out: Ca2+ pEC50 (converted).
T2 construct: expressed in transfected cells; host or cells: CHO-K1 coexpressing Gα16 and mitochondrial apoaequorin
T2 sequence (Q5NUL3 1-361): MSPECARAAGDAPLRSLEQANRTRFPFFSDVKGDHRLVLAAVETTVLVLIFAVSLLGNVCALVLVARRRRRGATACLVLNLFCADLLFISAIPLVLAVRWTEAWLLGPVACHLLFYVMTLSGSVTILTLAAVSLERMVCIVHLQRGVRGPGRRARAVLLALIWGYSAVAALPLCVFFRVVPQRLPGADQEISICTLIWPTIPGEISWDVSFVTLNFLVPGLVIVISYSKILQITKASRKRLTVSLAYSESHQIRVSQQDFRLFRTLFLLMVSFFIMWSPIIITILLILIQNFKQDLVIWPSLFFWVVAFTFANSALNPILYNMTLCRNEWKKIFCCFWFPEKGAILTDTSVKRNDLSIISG
Type: cell-based
From the text: This in vitro assay tests compounds' ability to activate heterologously expressed human GPR120 via G-protein coupling leading to generation of inositol 1,4,5-triphosphate and mobilization of intracellular calcium. This functional cellular assay is based on the luminescence of mitochondrial aequorin following intracellular Ca^2+ release. Aequorin is a photoprotein isolated from the jellyfish Aequorea victoria. The active protein is formed in the presence of molecular oxygen from apoaequorin and its cofactor coelenterazine. Binding of Ca^2+ to the active protein induces a conformational change, resulting in oxidation of coelenterazine and subsequent blue luminescence.
The short variant of the human GPR120 receptor (GenBank accession Number AAI01176) was stably expressed in a CHO-K1 cell line coexpressing Gα16 and mitochondrial apoaequorin.
Cells were grown to mid-log phase in culture media without antibiotics, were detached with PBS/EDTA, centrifuged and resuspended in assay buffer (DMEM-F12 medium with 15 mM HEPES pH 7.0 and 0.1% protease free BSA) at a concentration of 10^6 cells/mL. Cells were incubated at room temperature for at least 4 hours with 5 μM coelenterazine h.
Test compounds were dissolved in 100% DMSO to a concentration of 20 mM to provide stock solutions. Serial dilutions were performed from stock solutions in 100% DMSO to obtain intermediate concentrations 200-fold higher than the concentrations to be tested. Each sample was diluted 100-fold into assay buffer. 50 μl of these compound solutions were dispensed into each well of 96-well assay plates. The final concentration of compounds tested in the assay ranged from 5 nM to 100 μM. α-Linolenic acid was used as a reference compound. Each test was performed in duplicate.
To start the assay, 50 μl of cell suspension were added to each well of the assay plate. The resulting luminescence was recorded using a Hamamatsu Functional Drug Screening System 6000 (FDSS 6000), and raw data were expressed as relative light units (RLU).
as §1
Reported below in Table 1 are pEC50 values (pEC50=−log(EC50) from curve fit) for representative compounds of Formula I in this assay, Ca2+pEC50.

EC50	Structure (SMILES)
7.94 µM	O=S1(=O)c2ccccc2CN1c1ccnc(Oc2cccnc2)n1 [Compound 1]
